{"source": "paper PMC8800111", "about": "(The Journal of Biological Chemistry, 2021)", "format_in_all_cases": "cell-based", "key": {"[1]": {"target": "proteins of U3A human fibrosarcoma cells (4462 proteins detected) (Homo sapiens, UniProt P13861)", "sequence (P13861 whole entry)": "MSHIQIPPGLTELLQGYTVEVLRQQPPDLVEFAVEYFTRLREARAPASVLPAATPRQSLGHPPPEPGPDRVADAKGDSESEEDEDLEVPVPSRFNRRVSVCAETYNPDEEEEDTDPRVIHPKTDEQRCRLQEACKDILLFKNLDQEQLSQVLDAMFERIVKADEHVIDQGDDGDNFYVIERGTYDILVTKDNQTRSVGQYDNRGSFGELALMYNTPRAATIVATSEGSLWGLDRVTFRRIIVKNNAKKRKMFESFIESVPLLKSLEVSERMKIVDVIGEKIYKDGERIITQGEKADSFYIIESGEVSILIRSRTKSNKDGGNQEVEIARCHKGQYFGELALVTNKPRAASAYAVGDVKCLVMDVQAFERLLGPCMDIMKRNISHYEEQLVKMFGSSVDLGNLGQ", "details": "protein PRKAR2A; soluble abundance after heat, U3A cells"}, "[2]": {"target": "proteins of U3A human fibrosarcoma cells (4462 proteins detected) (Homo sapiens, UniProt P63146)", "details": "protein UBE2B, U3A cells"}, "[3]": {"target": "proteins of U3A human fibrosarcoma cells (4462 proteins detected) (Homo sapiens, UniProt P20042)", "details": "protein EIF2S2; U3A cells"}, "[4]": {"target": "proteins of U3A human fibrosarcoma cells (4462 proteins detected) (Homo sapiens, UniProt O76061)", "sequence (O76061 25-302)": "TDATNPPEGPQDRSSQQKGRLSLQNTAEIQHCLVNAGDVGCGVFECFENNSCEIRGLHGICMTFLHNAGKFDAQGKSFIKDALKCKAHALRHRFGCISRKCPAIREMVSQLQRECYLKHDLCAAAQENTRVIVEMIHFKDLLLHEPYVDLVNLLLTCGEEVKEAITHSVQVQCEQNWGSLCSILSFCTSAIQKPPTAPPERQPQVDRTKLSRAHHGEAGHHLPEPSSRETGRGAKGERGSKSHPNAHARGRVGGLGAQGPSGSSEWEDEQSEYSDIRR", "details": "protein STC2; U3A cells"}, "[5]": {"target": "proteins of U3A human fibrosarcoma cells (4462 proteins detected) (Homo sapiens, UniProt Q86TB9)", "details": "protein PATL1; U3A cells"}, "[6]": {"target": "proteins of U3A human fibrosarcoma cells (4462 proteins detected) (Homo sapiens, UniProt P30519)", "details": "protein HMOX2; U3A, 10 μM, 2 h"}, "[7]": {"target": "proteins of U3A human fibrosarcoma cells (4462 proteins detected) (Homo sapiens, UniProt P26440)", "details": "protein IVD, U3A cells"}, "[8]": {"target": "proteins of U3A human fibrosarcoma cells (4462 proteins detected) (Homo sapiens, UniProt O94829)", "sequence (O94829 whole entry)": "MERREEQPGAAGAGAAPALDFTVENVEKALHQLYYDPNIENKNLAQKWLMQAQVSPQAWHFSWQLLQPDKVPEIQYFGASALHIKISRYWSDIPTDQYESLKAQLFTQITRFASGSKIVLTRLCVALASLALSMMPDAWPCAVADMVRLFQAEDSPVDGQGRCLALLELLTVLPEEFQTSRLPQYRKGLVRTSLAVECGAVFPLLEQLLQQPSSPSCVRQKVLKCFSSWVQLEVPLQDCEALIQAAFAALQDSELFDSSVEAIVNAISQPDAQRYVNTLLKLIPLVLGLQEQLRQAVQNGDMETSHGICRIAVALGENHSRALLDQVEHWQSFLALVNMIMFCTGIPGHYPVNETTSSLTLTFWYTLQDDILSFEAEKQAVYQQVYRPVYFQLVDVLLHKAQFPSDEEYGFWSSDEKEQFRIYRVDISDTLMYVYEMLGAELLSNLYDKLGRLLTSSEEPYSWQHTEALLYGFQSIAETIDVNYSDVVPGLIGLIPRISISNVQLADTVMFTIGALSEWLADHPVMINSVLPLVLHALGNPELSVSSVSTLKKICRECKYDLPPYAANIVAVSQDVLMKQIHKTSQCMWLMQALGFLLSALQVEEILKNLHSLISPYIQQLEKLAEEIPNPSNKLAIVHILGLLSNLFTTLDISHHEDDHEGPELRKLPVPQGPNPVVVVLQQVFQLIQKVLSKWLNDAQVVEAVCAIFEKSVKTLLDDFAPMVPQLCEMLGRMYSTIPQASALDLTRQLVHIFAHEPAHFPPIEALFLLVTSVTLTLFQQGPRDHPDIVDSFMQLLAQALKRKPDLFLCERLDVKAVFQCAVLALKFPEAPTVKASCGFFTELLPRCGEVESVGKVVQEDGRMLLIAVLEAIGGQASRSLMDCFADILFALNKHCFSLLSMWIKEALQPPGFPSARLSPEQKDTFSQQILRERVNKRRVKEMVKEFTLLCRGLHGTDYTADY", "details": "protein IPO13; U3A cells"}, "[9]": {"target": "proteins of U3A human fibrosarcoma cells (4462 proteins detected) (Homo sapiens, UniProt P62906)", "details": "protein RPL10A; U3A cells"}, "[10]": {"target": "proteins of U3A human fibrosarcoma cells (4462 proteins detected) (Homo sapiens, UniProt Q96CB9)", "sequence (Q96CB9 26-384)": "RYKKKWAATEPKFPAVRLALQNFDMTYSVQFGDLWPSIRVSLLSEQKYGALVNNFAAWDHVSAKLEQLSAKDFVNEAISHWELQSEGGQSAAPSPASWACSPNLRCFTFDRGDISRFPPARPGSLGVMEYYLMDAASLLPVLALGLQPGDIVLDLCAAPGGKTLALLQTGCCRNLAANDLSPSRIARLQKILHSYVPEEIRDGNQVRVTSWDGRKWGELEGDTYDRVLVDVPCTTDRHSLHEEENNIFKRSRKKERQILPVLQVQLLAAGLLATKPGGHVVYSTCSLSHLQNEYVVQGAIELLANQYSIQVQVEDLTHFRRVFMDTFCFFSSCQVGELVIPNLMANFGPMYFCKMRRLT", "details": "protein NSUN4; U3A cells"}, "[11]": {"target": "proteins of U3A human fibrosarcoma cells (4462 proteins detected) (Homo sapiens, UniProt O00391)", "details": "protein QSOX1; U3A cells"}, "[12]": {"target": "proteins of U3A human fibrosarcoma cells (4462 proteins detected) (Homo sapiens, UniProt P05556)", "details": "protein ITGB1; U3A cells"}, "[13]": {"target": "proteins of U3A human fibrosarcoma cells (4462 proteins detected) (Homo sapiens, UniProt Q8WXD5)", "details": "protein GEMIN6, U3A cells"}, "[14]": {"target": "proteins of U3A human fibrosarcoma cells (4462 proteins detected) (Homo sapiens, UniProt Q13601)", "details": "protein KRR1; soluble abundance after heat, U3A cells"}, "[15]": {"target": "proteins of U3A human fibrosarcoma cells (4462 proteins detected) (Homo sapiens, UniProt Q1ED39)", "sequence (Q1ED39 whole entry)": "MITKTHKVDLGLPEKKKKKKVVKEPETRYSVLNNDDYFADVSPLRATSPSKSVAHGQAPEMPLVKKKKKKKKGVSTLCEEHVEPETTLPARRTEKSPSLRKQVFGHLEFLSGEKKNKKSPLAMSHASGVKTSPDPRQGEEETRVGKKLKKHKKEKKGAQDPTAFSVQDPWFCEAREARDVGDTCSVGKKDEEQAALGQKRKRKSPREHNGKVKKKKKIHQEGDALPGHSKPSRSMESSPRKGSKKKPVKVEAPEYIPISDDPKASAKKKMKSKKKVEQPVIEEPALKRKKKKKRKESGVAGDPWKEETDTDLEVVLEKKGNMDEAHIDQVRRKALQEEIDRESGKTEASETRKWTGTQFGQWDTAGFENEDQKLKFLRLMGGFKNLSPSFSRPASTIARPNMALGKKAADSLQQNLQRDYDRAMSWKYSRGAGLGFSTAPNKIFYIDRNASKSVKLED", "details": "protein KNOP1; U3A cells"}, "[16]": {"target": "proteins of U3A human fibrosarcoma cells (4462 proteins detected) (Homo sapiens, UniProt Q9UN37)", "details": "protein VPS4A; U3A cells"}, "[17]": {"target": "proteins of U3A human fibrosarcoma cells (4462 proteins detected) (Homo sapiens, UniProt Q9NVA2)", "details": "protein SEPT11, U3A cells"}, "[18]": {"target": "proteins of U3A human fibrosarcoma cells (4462 proteins detected) (Homo sapiens, UniProt P17252)", "details": "protein PRKCA; U3A cells"}, "[19]": {"target": "proteins of U3A human fibrosarcoma cells (4462 proteins detected) (Homo sapiens, UniProt Q9UEY8)", "details": "protein ADD3; U3A cells"}, "[20]": {"target": "proteins of U3A human fibrosarcoma cells (4462 proteins detected) (Homo sapiens, UniProt Q16740)", "details": "protein CLPP; soluble abundance after heat, U3A cells"}, "[21]": {"target": "proteins of U3A human fibrosarcoma cells (4462 proteins detected) (Homo sapiens, UniProt P00519)", "details": "protein ABL1; U3A cells"}, "[22]": {"target": "proteins of U3A human fibrosarcoma cells (4462 proteins detected) (Homo sapiens, UniProt Q96T37)", "details": "protein RBM15; U3A cells"}, "[23]": {"target": "proteins of U3A human fibrosarcoma cells (4462 proteins detected) (Homo sapiens, UniProt Q99661)", "details": "protein KIF2C; U3A cells"}, "[24]": {"target": "proteins of U3A human fibrosarcoma cells (4462 proteins detected) (Homo sapiens, UniProt Q9BY32)", "details": "protein ITPA; soluble abundance after heat, U3A cells"}, "[25]": {"target": "proteins of U3A human fibrosarcoma cells (4462 proteins detected) (Homo sapiens, UniProt P41229)", "sequence (P41229 whole entry)": "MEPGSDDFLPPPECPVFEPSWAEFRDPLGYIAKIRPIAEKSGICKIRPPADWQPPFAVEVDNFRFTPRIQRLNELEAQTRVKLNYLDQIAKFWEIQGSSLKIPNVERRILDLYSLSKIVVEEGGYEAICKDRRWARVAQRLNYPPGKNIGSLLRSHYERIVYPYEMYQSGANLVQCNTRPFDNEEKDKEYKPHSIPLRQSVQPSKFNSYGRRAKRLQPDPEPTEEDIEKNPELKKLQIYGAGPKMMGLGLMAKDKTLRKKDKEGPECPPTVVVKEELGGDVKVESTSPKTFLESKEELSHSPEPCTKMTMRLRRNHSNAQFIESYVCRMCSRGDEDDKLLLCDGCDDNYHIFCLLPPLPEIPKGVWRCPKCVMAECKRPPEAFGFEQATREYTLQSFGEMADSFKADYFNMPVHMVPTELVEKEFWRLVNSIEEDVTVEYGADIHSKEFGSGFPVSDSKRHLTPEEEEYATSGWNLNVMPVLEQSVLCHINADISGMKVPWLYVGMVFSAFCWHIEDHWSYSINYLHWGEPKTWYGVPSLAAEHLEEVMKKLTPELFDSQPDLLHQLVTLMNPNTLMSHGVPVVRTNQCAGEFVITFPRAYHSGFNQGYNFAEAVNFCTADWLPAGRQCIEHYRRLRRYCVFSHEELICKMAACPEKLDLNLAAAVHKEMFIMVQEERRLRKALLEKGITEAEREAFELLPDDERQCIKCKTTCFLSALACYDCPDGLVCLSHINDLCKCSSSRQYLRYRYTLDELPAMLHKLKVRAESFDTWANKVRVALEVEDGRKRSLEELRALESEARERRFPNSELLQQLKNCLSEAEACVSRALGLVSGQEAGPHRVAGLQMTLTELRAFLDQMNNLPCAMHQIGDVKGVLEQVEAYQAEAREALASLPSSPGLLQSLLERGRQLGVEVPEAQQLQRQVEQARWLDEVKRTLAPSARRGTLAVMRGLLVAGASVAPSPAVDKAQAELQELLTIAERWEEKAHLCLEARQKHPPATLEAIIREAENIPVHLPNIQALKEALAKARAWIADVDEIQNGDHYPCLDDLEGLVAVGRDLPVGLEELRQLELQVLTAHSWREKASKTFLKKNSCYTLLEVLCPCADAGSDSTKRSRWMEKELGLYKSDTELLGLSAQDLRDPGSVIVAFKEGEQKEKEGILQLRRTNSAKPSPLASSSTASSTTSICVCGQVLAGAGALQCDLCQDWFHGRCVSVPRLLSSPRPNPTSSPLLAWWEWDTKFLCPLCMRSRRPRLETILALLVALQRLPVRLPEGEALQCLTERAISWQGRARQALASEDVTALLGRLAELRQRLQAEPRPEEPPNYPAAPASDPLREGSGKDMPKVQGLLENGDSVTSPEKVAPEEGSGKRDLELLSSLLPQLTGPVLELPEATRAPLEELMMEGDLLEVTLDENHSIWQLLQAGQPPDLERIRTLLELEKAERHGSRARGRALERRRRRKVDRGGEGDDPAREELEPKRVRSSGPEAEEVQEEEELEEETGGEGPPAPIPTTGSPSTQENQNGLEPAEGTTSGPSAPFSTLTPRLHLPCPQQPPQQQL", "details": "protein KDM5C; U3A cells"}, "[26]": {"target": "proteins of U3A human fibrosarcoma cells (4462 proteins detected) (Homo sapiens, UniProt Q13492)", "details": "protein PICALM; U3A cells"}, "[27]": {"target": "proteins of U3A human fibrosarcoma cells (4462 proteins detected) (Homo sapiens, UniProt P51114)", "details": "protein FXR1; U3A cells"}, "[28]": {"target": "proteins of U3A human fibrosarcoma cells (4462 proteins detected) (Homo sapiens, UniProt P78559)", "details": "protein MAP1A, U3A cells"}, "[29]": {"target": "proteins of U3A human fibrosarcoma cells (4462 proteins detected) (Homo sapiens, UniProt Q92922)", "details": "protein SMARCC1; soluble abundance after heat, U3A cells"}, "[30]": {"target": "proteins of U3A human fibrosarcoma cells (4462 proteins detected) (Homo sapiens, UniProt Q96DH6)", "sequence (Q96DH6 whole entry)": "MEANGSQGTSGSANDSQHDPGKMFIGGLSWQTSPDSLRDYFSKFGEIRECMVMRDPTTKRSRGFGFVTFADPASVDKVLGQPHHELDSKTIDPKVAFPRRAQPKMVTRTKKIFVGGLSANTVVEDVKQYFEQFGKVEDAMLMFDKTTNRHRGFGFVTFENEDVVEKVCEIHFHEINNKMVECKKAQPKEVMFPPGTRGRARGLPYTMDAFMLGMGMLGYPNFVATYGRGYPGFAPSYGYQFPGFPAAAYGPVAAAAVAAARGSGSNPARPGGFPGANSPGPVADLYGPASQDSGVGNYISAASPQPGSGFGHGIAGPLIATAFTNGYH", "details": "protein MSI2; U3A, 10 μM, 2 h"}}, "data": [{"molecule": "CCc1nc(N)nc(N)c1-c1ccc(Cl)cc1", "note": "[pyrimethamine]", "values": [{"measurement": "Log2 (PYR/DMSO)", "setting": "[1]", "value": 0.14}, {"measurement": "Log2 (PYR/DMSO)", "setting": "[2]", "value": -0.04}, {"measurement": "Log2 (PYR/DMSO)", "setting": "[3]", "value": 0.17}, {"measurement": "Log2 (PYR/DMSO)", "setting": "[4]", "value": 0.16}, {"measurement": "Log2 (PYR/DMSO)", "setting": "[5]", "value": 0.22}, {"measurement": "Log2 (PYR/DMSO), HMOX2", "setting": "[6]", "value": 0.25}, {"measurement": "Log2 (PYR/DMSO)", "setting": "[7]", "value": -0.05}, {"measurement": "Log2 (PYR/DMSO)", "setting": "[8]", "value": 0.19}, {"measurement": "Log2 (PYR/DMSO)", "setting": "[9]", "value": 0.17}, {"measurement": "Log2 (PYR/DMSO)", "setting": "[10]", "value": 0.16}, {"measurement": "Log2 (PYR/DMSO)", "setting": "[11]", "value": 0.17}, {"measurement": "Log2 (PYR/DMSO)", "setting": "[12]", "value": 0.16}, {"measurement": "Log2 (PYR/DMSO)", "setting": "[13]", "value": -0.04}, {"measurement": "Log2 (PYR/DMSO)", "setting": "[14]", "value": 0.14}, {"measurement": "Log2 (PYR/DMSO)", "setting": "[15]", "value": 0.17}, {"measurement": "Log2 (PYR/DMSO)", "setting": "[16]", "value": 0.19}, {"measurement": "Log2 (PYR/DMSO)", "setting": "[17]", "value": -0.04}, {"measurement": "Log2 (PYR/DMSO)", "setting": "[18]", "value": 0.16}, {"measurement": "Log2 (PYR/DMSO)", "setting": "[19]", "value": 0.16}, {"measurement": "Log2 (PYR/DMSO)", "setting": "[20]", "value": 0.14}, {"measurement": "Log2 (PYR/DMSO)", "setting": "[21]", "value": 0.17}, {"measurement": "Log2 (PYR/DMSO)", "setting": "[22]", "value": 0.17}, {"measurement": "Log2 (PYR/DMSO)", "setting": "[23]", "value": 0.17}, {"measurement": "Log2 (PYR/DMSO)", "setting": "[24]", "value": 0.15}, {"measurement": "Log2 (PYR/DMSO)", "setting": "[25]", "value": 0.18}, {"measurement": "Log2 (PYR/DMSO)", "setting": "[26]", "value": 0.17}, {"measurement": "Log2 (PYR/DMSO)", "setting": "[27]", "value": 0.17}, {"measurement": "Log2 (PYR/DMSO)", "setting": "[28]", "value": -0.04}, {"measurement": "Log2 (PYR/DMSO)", "setting": "[29]", "value": 0.15}, {"measurement": "Log2 (PYR/DMSO), MSI2", "setting": "[30]", "value": -0.17}]}]}
